From patent publication US20210230203A1, “Amphiphilic Kanamycin Compositions and Methods” (priority 2020, published 2021)
Values after ≈ are worked out from the molar mass of the structure shown.

What was measured:
[1] = tested on: Cryptococcus neoformans H99; assay: MIC against fungal strains (Table 1); format: cell-based; conditions: Cryptococcus neoformans H99
[2] = tested on: Scedosporium; assay: MIC against various species, CLSI M27 & M38 (Table 4); conditions: 24-72 hours
[3] = tested on: Fusarium graminearum B4-5A; assay: microbe, parasite or virus in culture; format: cell-based; conditions: Fusarium graminearum B4-5A
[4] = tested on: C. parapsilosis; assay: MIC against various species, CLSI M27 & M38 (Table 4); conditions: C. parapsilosis QC ATCC 22019; Table 4; RPMI 0.165M MOPS; 24-72 hours
[5] = tested on: Candida parapsilosis; assay: MIC against yeast, CLSI M27 & M38 (Table 2); conditions: Table 2, RPMI 0.165M MOPS, 24-72 hours
[6] = tested on: Candida glabrata; assay: MIC against yeast, CLSI M27 & M38 (Table 2); conditions: 24-72 hours
[7] = tested on: C. albicans; assay: MIC against various species, CLSI M27 & M38 (Table 4); conditions: 24-72 hours
[8] = tested on: Saksenaea sp.; assay: MIC against filamentous and dimorphic fungi, CLSI M27 & M38 (Table 3); format: cell-based, Saksenaea species; conditions: 24-72 hours
[9] = tested on: L. prolificans; assay: MIC against various species, CLSI M27 & M38 (Table 4); conditions: L. prolificans LP1; Table 4; RPMI 0.165M MOPS; 24-72 hours
[10] = tested on: Candida auris; assay: MIC against yeast, CLSI M27 & M38 (Table 2); conditions: 24-72 hours
[11] = tested on: C. krusei; assay: MIC against various species, CLSI M27 & M38 (Table 4); conditions: C. krusei AC ATCC 6258; Table 4; RPMI 0.165M MOPS; 24-72 hours
[12] = tested on: Apaphysomyces; assay: as above; format: cell-based, Apophysomyces; conditions: 24-72 hours
[13] = tested on: Histoplasma capsulatum; assay: microbe, parasite or virus in culture; format: cell-based; conditions: Table 3, RPMI 0.165M MOPS, 24-72 hours
[14] = tested on: S. aureus (ATCC 25923); assay: MIC against bacterial strains; format: cell-based
[15] = tested on: Candida guillermondii; assay: MIC against yeast, CLSI M27 & M38 (Table 2); conditions: 24-72 hours
[16] = tested on: S. aureus (ATCC 43300) MRSA; format: cell-based
[17] = tested on: Rhizopus arrhizus; assay: MIC against filamentous and dimorphic fungi, CLSI M27 & M38 (Table 3); format: cell-based; conditions: 24-72 hours
[18] = tested on: P. variotil; assay: MIC against various species, CLSI M27 & M38 (Table 4); format: cell-based, Paecilomyces variotii; conditions: P. variotil QC, RPMI 0.165M MOPS, 24-72 hours
[19] = tested on: C. krusei; assay: MIC against yeast, CLSI M27 & M38 (Table 2); conditions: C. krusei ATCC 6258; Table 2; RPMI 0.165M MOPS; 24-72 hours
[20] = Scedosporium SA1, RPMI 0.165M MOPS
[21] = Scedosporium SB1, RPMI 0.165M MOPS
[22] = Candida glabrata CG1, RPMI 0.165M MOPS
[23] = Candida glabrata CG2, RPMI 0.165M MOPS
[24] = Candida glabrata CG3, RPMI 0.165M MOPS
[25] = C. albicans CA1, RPMI 0.165M MOPS
[26] = C. albicans CA2, RPMI 0.165M MOPS
[27] = C. albicans CA3, RPMI 0.165M MOPS
[28] = Saksenaea sp. SK1, RPMI 0.165M MOPS
[29] = Saksenaea sp. SK2, RPMI 0.165M MOPS
[30] = Saksenaea sp. SK3, RPMI 0.165M MOPS
[31] = Candida auris CAU1, RPMI 0.165M MOPS
[32] = Candida auris CAU2, RPMI 0.165M MOPS
[33] = Candida auris CAU3, RPMI 0.165M MOPS
[34] = Candida auris CAU4, RPMI 0.165M MOPS
[35] = Candida auris CAU5, RPMI 0.165M MOPS
[36] = Candida auris CAU6, RPMI 0.165M MOPS
[37] = Candida auris CAU7, RPMI 0.165M MOPS
[38] = Candida auris DI17-46, RPMI 0.165M MOPS
[39] = Candida auris DI17-47, RPMI 0.165M MOPS
[40] = Candida auris DI17-48, RPMI 0.165M MOPS
[41] = Apaphysomyces APO1, RPMI 0.165M MOPS
[42] = Apaphysomyces APO2, RPMI 0.165M MOPS
[43] = Apaphysomyces APO3, RPMI 0.165M MOPS
[44] = Candida guillermondii CGUI1, RPMI 0.165M MOPS
[45] = Candida guillermondii CGUI2, RPMI 0.165M MOPS
[46] = Candida guillermondii CGUI3, RPMI 0.165M MOPS
[47] = Rhizopus arrhizus 99-880, RPMI 0.165M MOPS
[48] = Rhizopus arrhizus 99-892, RPMI 0.165M MOPS
[49] = Rhizopus arrhizus RA1, RPMI 0.165M MOPS

## CCCCCCCCCCCCCCCC(=O)NC[C@H]1O[C@H](O[C@H]2[C@H](O)[C@@H](O[C@H]3O[C@H](CO)[C@@H](O)[C@H](N)[C@H]3O)[C@H](N)C[C@@H]2N)[C@H](O)[C@@H](O)[C@@H]1O [KI06]
[1]
  Minimum inhibitory concentration: 4 µg/mL (≈ 5.53 µM)
[2]; [20]
  Minimum inhibitory concentration 50%: 2 µg/mL (≈ 2.77 µM)
  Minimum inhibitory concentration 100%: 4 µg/mL (≈ 5.53 µM)
[2]; [21]
  Minimum inhibitory concentration 50%: 1 µg/mL (≈ 1.38 µM)
  Minimum inhibitory concentration 100%: 8 µg/mL (≈ 11.1 µM)
[3]
  Minimum inhibitory concentration: 4 µg/mL (≈ 5.53 µM)
[4]
  Minimum inhibitory concentration 50%: 4 µg/mL (≈ 5.53 µM)
  Minimum inhibitory concentration 100%: 8 µg/mL (≈ 11.1 µM)
[5]; C. parapsilosis ATCC 22019
  Minimum inhibitory concentration 50%: 4 µg/mL (≈ 5.53 µM)
  Minimum inhibitory concentration 100%: 8 µg/mL (≈ 11.1 µM)
[5]; Candida parapsilosis CP1
  Minimum inhibitory concentration 50%: 4 µg/mL (≈ 5.53 µM)
  Minimum inhibitory concentration 100%: 8 µg/mL (≈ 11.1 µM)
[5]; Candida parapsilosis CP2
  Minimum inhibitory concentration 50%: 4 µg/mL (≈ 5.53 µM)
  Minimum inhibitory concentration 100%: 8 µg/mL (≈ 11.1 µM)
[5]; Candida parapsilosis CP3
  Minimum inhibitory concentration 50%: 8 µg/mL (≈ 11.1 µM)
  Minimum inhibitory concentration 100%: 16 µg/mL (≈ 22.1 µM)
[6]; [22]
  Minimum inhibitory concentration 50%: 4 µg/mL (≈ 5.53 µM)
  Minimum inhibitory concentration 100%: 8 µg/mL (≈ 11.1 µM)
[6]; [23]
  Minimum inhibitory concentration 50%: 4 µg/mL (≈ 5.53 µM)
  Minimum inhibitory concentration 100%: 4 µg/mL (≈ 5.53 µM)
[6]; [24]
  Minimum inhibitory concentration 50%: 4 µg/mL (≈ 5.53 µM)
  Minimum inhibitory concentration 100%: 4 µg/mL (≈ 5.53 µM)
[7]; [25]
  Minimum inhibitory concentration 50%: 4 µg/mL (≈ 5.53 µM)
  Minimum inhibitory concentration 100%: 4 µg/mL (≈ 5.53 µM)
[7]; [26]
  Minimum inhibitory concentration 50%: 4 µg/mL (≈ 5.53 µM)
  Minimum inhibitory concentration 100%: 8 µg/mL (≈ 11.1 µM)
[7]; [27]
  Minimum inhibitory concentration 50%: 2 µg/mL (≈ 2.77 µM)
  Minimum inhibitory concentration 100%: 4 µg/mL (≈ 5.53 µM)
[8]; [28]
  Minimum inhibitory concentration 50%: 1 µg/mL (≈ 1.38 µM)
  Minimum inhibitory concentration 100%: 1 µg/mL (≈ 1.38 µM)
[8]; [29]
  Minimum inhibitory concentration 50%: 1 µg/mL (≈ 1.38 µM)
  Minimum inhibitory concentration 100%: 2 µg/mL (≈ 2.77 µM)
[8]; [30]
  Minimum inhibitory concentration 50%: 1 µg/mL (≈ 1.38 µM)
  Minimum inhibitory concentration 100%: 2 µg/mL (≈ 2.77 µM)
[9]
  Minimum inhibitory concentration 50%: 2 µg/mL (≈ 2.77 µM)
  Minimum inhibitory concentration 100%: 2 µg/mL (≈ 2.77 µM)
[10]; [31]
  Minimum inhibitory concentration 50%: 4 µg/mL (≈ 5.53 µM)
  Minimum inhibitory concentration 100%: 8 µg/mL (≈ 11.1 µM)
[10]; [32]
  Minimum inhibitory concentration 50%: 4 µg/mL (≈ 5.53 µM)
  Minimum inhibitory concentration 100%: 8 µg/mL (≈ 11.1 µM)
[10]; [33]
  Minimum inhibitory concentration 50%: 4 µg/mL (≈ 5.53 µM)
  Minimum inhibitory concentration 100%: 8 µg/mL (≈ 11.1 µM)
[10]; [34]
  Minimum inhibitory concentration 50%: 8 µg/mL (≈ 11.1 µM)
  Minimum inhibitory concentration 100%: 8 µg/mL (≈ 11.1 µM)
[10]; [35]
  Minimum inhibitory concentration 50%: 8 µg/mL (≈ 11.1 µM)
  Minimum inhibitory concentration 100%: 8 µg/mL (≈ 11.1 µM)
[10]; [36]
  Minimum inhibitory concentration 50%: 4 µg/mL (≈ 5.53 µM)
  Minimum inhibitory concentration 100%: 8 µg/mL (≈ 11.1 µM)
[10]; [37]
  Minimum inhibitory concentration 50%: 4 µg/mL (≈ 5.53 µM)
  Minimum inhibitory concentration 100%: 8 µg/mL (≈ 11.1 µM)
[10]; [38]
  Minimum inhibitory concentration 50%: 8 µg/mL (≈ 11.1 µM)
  Minimum inhibitory concentration 100%: 8 µg/mL (≈ 11.1 µM)
[10]; [39]
  Minimum inhibitory concentration 50%: 8 µg/mL (≈ 11.1 µM)
  Minimum inhibitory concentration 100%: 8 µg/mL (≈ 11.1 µM)
[10]; [40]
  Minimum inhibitory concentration 50%: 4 µg/mL (≈ 5.53 µM)
  Minimum inhibitory concentration 100%: 8 µg/mL (≈ 11.1 µM)
[11]
  Minimum inhibitory concentration 50%: 4 µg/mL (≈ 5.53 µM)
  Minimum inhibitory concentration 100%: 8 µg/mL (≈ 11.1 µM)
[12]; [41]
  Minimum inhibitory concentration 50%: 2 µg/mL (≈ 2.77 µM)
  Minimum inhibitory concentration 100%: 2 µg/mL (≈ 2.77 µM)
[12]; [42]
  Minimum inhibitory concentration 50%: 1 µg/mL (≈ 1.38 µM)
  Minimum inhibitory concentration 100%: 4 µg/mL (≈ 5.53 µM)
[12]; [43]
  Minimum inhibitory concentration 50%: 1 µg/mL (≈ 1.38 µM)
  Minimum inhibitory concentration 100%: 4 µg/mL (≈ 5.53 µM)
[13]; Histoplasma capsulatum HC1
  Minimum inhibitory concentration 50%: 2 µg/mL (≈ 2.77 µM)
  Minimum inhibitory concentration 100%: 4 µg/mL (≈ 5.53 µM)
[13]; Histoplasma capsulatum HC2
  Minimum inhibitory concentration 50%: 4 µg/mL (≈ 5.53 µM)
  Minimum inhibitory concentration 100%: 8 µg/mL (≈ 11.1 µM)
[13]; Histoplasma capsulatum HC3
  Minimum inhibitory concentration 50%: 2 µg/mL (≈ 2.77 µM)
  Minimum inhibitory concentration 100%: 4 µg/mL (≈ 5.53 µM)
[14]
  Minimum inhibitory concentration: 16 µg/mL (≈ 22.1 µM)
[15]; [44]
  Minimum inhibitory concentration 50%: 4 µg/mL (≈ 5.53 µM)
  Minimum inhibitory concentration 100%: 8 µg/mL (≈ 11.1 µM)
[15]; [45]
  Minimum inhibitory concentration 50%: 4 µg/mL (≈ 5.53 µM)
  Minimum inhibitory concentration 100%: 8 µg/mL (≈ 11.1 µM)
[15]; [46]
  Minimum inhibitory concentration 50%: 4 µg/mL (≈ 5.53 µM)
  Minimum inhibitory concentration 100%: 8 µg/mL (≈ 11.1 µM)
[16]
  Minimum inhibitory concentration: 16 µg/mL (≈ 22.1 µM)
[17]; [47]
  Minimum inhibitory concentration 50%: 2 µg/mL (≈ 2.77 µM)
  Minimum inhibitory concentration 100%: 4 µg/mL (≈ 5.53 µM)
[17]; [48]
  Minimum inhibitory concentration 50%: 2 µg/mL (≈ 2.77 µM)
  Minimum inhibitory concentration 100%: 4 µg/mL (≈ 5.53 µM)
[17]; [49]
  Minimum inhibitory concentration 50%: 2 µg/mL (≈ 2.77 µM)
  Minimum inhibitory concentration 100%: 4 µg/mL (≈ 5.53 µM)
[18]
  Minimum inhibitory concentration 50%: 8 µg/mL (≈ 11.1 µM)
  Minimum inhibitory concentration 100%: 8 µg/mL (≈ 11.1 µM)
[19]
  Minimum inhibitory concentration 50%: 8 µg/mL (≈ 11.1 µM)
  Minimum inhibitory concentration 100%: 8 µg/mL (≈ 11.1 µM)
